Data taken from patent publication US20050187240A1, “Aaptamine and isoaaptamine and structural modifications thereof” (The Arizona Board of Regents, Acting for and on behalf of …, priority 2004, published 2005).
Where a name gives a salt, the structure may show the parent alone. Read-outs that look alike come from different tables or passages of the source.

Experiments:
[1] = system: murine P388 lymphocytic leukemia cell line; assay: Cancer cell growth inhibition, murine P388 lymphocytic leukemia cell line; format: cell-based; conditions: Mus musculus
Method in brief: (§1)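 Growth inhibition in murine P388 leukemia and human cancer cell line panels (Arizona State University minipanel and NCI 60-cell screen).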

lung NCI-H460 = assay: Cancer cell growth inhibition, lung NCI-H460; format: cell-based, human; conditions: Homo sapiens, lung NCI-H460
Method in brief: as §1

colon KM 20L2 = assay: Cancer cell growth inhibition, colon KM 20L2; format: cell-based, human; conditions: Homo sapiens, colon KM 20L2
Method in brief: as §1

pancreas BXPC-3 = assay: Cancer cell growth inhibition, pancreas BXPC-3; format: cell-based, human; conditions: Homo sapiens, pancreas BXPC-3
Description: (§2) Biology The cancer cell growth inhibitory properties were examined using the murine P388 lymphocytic leukemia cell line and a selection of human cancer cell lines.
(§3) All of the synthetic products were evaluated against a minipanel of human cancer cell lines, the murine P388 lymphocytic leukemia cell line and a selection of microorganisms.

breast MCF-7 = assay: Cancer cell growth inhibition, breast MCF-7; format: cell-based, human; conditions: Homo sapiens, MCF7, breast MCF-7
Description: as §2, §3

CNS SF-268 = assay: Cancer cell growth inhibition, CNS SF-268; format: cell-based, human; conditions: Homo sapiens, CNS SF-268
Description: as §2, §3

prostrate DU-145 = assay: Cancer cell growth inhibition, prostate DU-145; format: cell-based, human; conditions: Homo sapiens
Description: as §2, §3

Cryptococcus neoformans = assay: Broth microdilution susceptibility assay, Cryptococcus neoformans; format: cell-based; conditions: for MIC: Table 4, read-out: Range of minimum inhibitory concentration
Candida albicans = assay: Broth microdilution susceptibility assay, Candida albicans; format: cell-based; conditions: for MIC: Table 4, read-out: Range of minimum inhibitory concentration
Staphylococcus aureus = assay: Broth microdilution susceptibility assay, Staphylococcus aureus; format: cell-based; conditions: for MIC: Table 4, read-out: Range of minimum inhibitory concentration
Streptococcus pneumoniae = assay: Broth microdilution susceptibility assay, Streptococcus pneumoniae; format: cell-based; conditions: for MIC: Table 4, read-out: Range of minimum inhibitory concentration
Enterococcus faecalis = assay: Broth microdilution susceptibility assay, Enterococcus faecalis; format: cell-based; conditions: for MIC: Table 4, read-out: Range of minimum inhibitory concentration
Micrococcus luteus = assay: Broth microdilution susceptibility assay, Micrococcus luteus; format: cell-based; conditions: for MIC: Table 4, read-out: Range of minimum inhibitory concentration
Escherichia coli = assay: Broth microdilution susceptibility assay, Escherichia coli; format: cell-based; conditions: for MIC: Table 4, read-out: Range of minimum inhibitory concentration
Enterobacter cloacae = assay: Broth microdilution susceptibility assay, Enterobacter cloacae; format: cell-based; conditions: for MIC: Table 4, read-out: Range of minimum inhibitory concentration
[2] = system: Stenotrophomonas maltophilia; assay: Broth microdilution susceptibility assay, Stenotrophomonas maltophilia; format: cell-based; conditions: for MIC: Table 4, Stenotrophomonas maltophil, read-out: Range of minimum inhibitory concentration
Neisseria gonorrhoeae = assay: Broth microdilution susceptibility assay, Neisseria gonorrhoeae; format: cell-based; conditions: for MIC: Table 4, read-out: Range of minimum inhibitory concentration
[3] = Antimicrobial activity in the presence of human serum; format: cell-based
Source text: The antimicrobial activity of phenols 15 and 18 in the presence of human serum was also investigated.

PKC alpha [4] = target: T1, PKC alpha (Homo sapiens, UniProt P17252); assay: Inhibition of PKC catalytic activity (peptide substrate phosphorylation); format: biochemical; conditions: for inhibition at 30 µM: read-out: percent inhibition of PKC catalytic activity
Source text: We further evaluated the ability of the derivatives to inhibit PKC catalytic activity. […] Inhibition by 10c was 19.5±7.6% and inhibition by 4, 5, and 9a, b, c was 6% or less (all values are mean±SEM, three experiments). […] In both cases, the inhibition curves were steeper than predicted for a competitive inhibitor, consistent with a complicated mechanism of action (Hill coefficients for 10a and 10b of 1.5±0.1 and 2.0±0.5, respectively).

[5] = system: herpes simplex virus type 1 (HSV-1); conditions: cited from earlier work
Vero cells = conditions: cited from earlier work
[6] = system: Mycobacterium tuberculosis H37Rv; assay: Microplate Alamar Blue Assay, Mycobacterium tuberculosis; format: cell-based; conditions: 6.25 μg/ml
PKC alpha [7] = target: T1, PKC alpha; assay: Inhibition of [3H]phorbol 12,13-dibutyrate binding to PKC alpha; conditions: read-out: inhibition of [3H]phorbol 12,13-dibutyrate binding to PKC alpha
Method in brief: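 Compounds tested at a single 30 μM concentration for displacement of [3H]phorbol 12,13-dibutyrate binding to PKC alpha, reported as percent inhibition. Triplicate measurements in one or three independent experiments depending on compound.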

[8] = system: THP-1 human monocytic leukemia cells; assay: Flow cytometry cell cycle analysis of THP-1 cells; format: cell-based; conditions: THP-1 cells pretreated for 24 hours with 0.25 μg/ml
[9] = system: genes whose products are involved in DNA synthesis; assay: cDNA microarray assay with THP-1 cells; format: cell-based, human; conditions: THP-1 cells treated for 23 hours with 0.25 μg/ml
[10] = P388, Table 3, leukemia P-388, read-out: Cancer cell growth inhibitory ED50
[11] = Table 3, read-out: Cancer cell growth inhibitory ED50
[12] = Table 3, prostrate DU-145, read-out: Cancer cell growth inhibitory ED50
[13] = Table 5, leukemia P388, read-out: Cancer Cell Line Results ED50
[14] = Table 5, read-out: Cancer Cell Line Results ED50
[15] = DU-145, Table 5, prostate DRU-145, read-out: Cancer Cell Line Results ED50

Oc1cc2ccnc3c2c(c1O)NC=C3 [Compound 15, 8,9-Dihydroxy-1H-Benzo[de][1,6]naphthyridine hydrobromide]
IC50 [1, 10]: 0.12 µg/mL | IC50 (lung NCI-H460; [11]): 0.52 µg/mL | IC50 (colon KM 20L2; [11]): 0.3 µg/mL | IC50 (pancreas BXPC-3; [11]): 0.33 µg/mL | IC50 (breast MCF-7; [11]): 0.31 µg/mL | IC50 (CNS SF-268; [11]): 0.8 µg/mL | IC50 (prostrate DU-145; [12]): 1.1 µg/mL | MIC (Cryptococcus neoformans): 32 µg/mL | MIC (Candida albicans): 64 µg/mL | MIC (Staphylococcus aureus): 4 to 8 µg/mL | MIC (Streptococcus pneumoniae): 8 µg/mL | MIC (Enterococcus faecalis): 8 to 16 µg/mL | MIC (Micrococcus luteus): 4 µg/mL | MIC (Escherichia coli): 16 to 64 µg/mL | MIC (Enterobacter cloacae): > 64 µg/mL | MIC [2]: 32 µg/mL | MIC (Neisseria gonorrhoeae): > 0.5 µg/mL | minimum inhibitory concentrations in the presence of human serum versus absence of serum [3]: identical or one 2-fold dilution lower

COc1cc2c3c(ccnc3c1OC)N(C)C=C2 [Compound 4, 4-Methylaaptamine]
IC50 [1, 10]: > 10 µg/mL | IC50 [1, 13]: > 10 µg/mL | IC50 (lung NCI-H460; [11]): > 10 µg/mL | IC50 (lung NCI-H460; [14]): > 10 µg/mL | IC50 (colon KM 20L2; [11]): > 10 µg/mL | IC50 (colon KM 20L2; [14]): > 10 µg/mL | IC50 (pancreas BXPC-3; [11]): > 10 µg/mL | IC50 (pancreas BXPC-3; [14]): > 10 µg/mL | IC50 (breast MCF-7; [11]): > 10 µg/mL | IC50 (breast MCF-7; [14]): > 10 µg/mL | IC50 (CNS SF-268; [11]): > 10 µg/mL | IC50 (CNS SF-268; [14]): > 10 µg/mL | IC50 (prostrate DU-145; [15]): > 10 µg/mL | IC50 (prostrate DU-145; [12]): > 10 µg/mL | MIC (Cryptococcus neoformans): > 64 µg/mL | MIC (Candida albicans): > 64 µg/mL | MIC (Staphylococcus aureus): > 64 µg/mL | MIC (Streptococcus pneumoniae): > 64 µg/mL | MIC (Enterococcus faecalis): > 64 µg/mL | MIC (Micrococcus luteus): > 64 µg/mL | MIC (Escherichia coli): > 64 µg/mL | MIC (Enterobacter cloacae): > 64 µg/mL | MIC [2]: > 64 µg/mL | MIC (Neisseria gonorrhoeae): > 64 µg/mL | inhibition at 30 µM (PKC alpha [4]; 30 μM compound, 1 μM phorbol 12-myristate 13-acetate, 100 μg/ml phospholipid, mean±SEM, three experiments): ≤ 6% | antiviral activity against HSV-1 [5]: potent antiviral activity | toxicity to Vero cells (Vero cells): low toxicity

COc1cc2c3c(cc[n+](Cc4ccccc4)c3c1OC)N(Cc1ccccc1)C=C2.[Cl-] [Compound 10a, 1,4-Bis-(benzyl)-8,9-dimethoxy-4H-benzo[de][1,6]naphthyridin-1-ium chloride]
IC50 [1, 13]: 0.234 µg/mL | IC50 (lung NCI-H460; [14]): 0.26 µg/mL | IC50 (colon KM 20L2; [14]): 0.055 µg/mL | IC50 (pancreas BXPC-3; [14]): 0.061 µg/mL | IC50 (breast MCF-7; [14]): 0.27 µg/mL | IC50 (CNS SF-268; [14]): 0.064 µg/mL | IC50 (prostrate DU-145; [15]): 0.036 µg/mL | Range of minimum inhibitory concentration (Cryptococcus neoformans; Table 6): * (no inhibition at 64 μg/mL) | Range of minimum inhibitory concentration (Candida albicans; Table 6): * (no inhibition at 64 μg/mL) | Range of minimum inhibitory concentration (Staphylococcus aureus; Table 6): * (no inhibition at 64 μg/mL) | Range of minimum inhibitory concentration (Streptococcus pneumoniae; Table 6): 32 µg/mL | Range of minimum inhibitory concentration (Enterococcus faecalis; Table 6): 32 µg/mL | Range of minimum inhibitory concentration (Micrococcus luteus; Table 6): 0.5 to 2 µg/mL | Range of minimum inhibitory concentration (Escherichia coli; Table 6): 8 µg/mL | Range of minimum inhibitory concentration (Enterobacter cloacae; Table 6): * (no inhibition at 64 μg/mL) | Range of minimum inhibitory concentration ([2]; Table 6): * (no inhibition at 64 μg/mL) | Range of minimum inhibitory concentration (Neisseria gonorrhoeae; Table 6): 0.25 µg/mL | inhibition at 6.25 µg/mL [6]: 98% | inhibition at 30 µM (PKC alpha [7]): 11.8% | Hill coefficient of PKC inhibition curve (PKC alpha [4]): 1.5±0.1 | IC50 (PKC alpha [4]): 20.8 ± 2.5 µM | inhibition at 30 µM (PKC alpha [4]): 71.1 ± 4.5% | cell cycle effect (propidium iodide flow cytometry) [8]: accumulation of cells in the GI phase | down-regulation of several genes involved in DNA synthesis [9]: 5- to 7 fold | melting point: 175 °C (dec.)
